# Patent US20240398831A1, “COMPOSITIONS COMPRISING SMALL MOLECULE REGULATORS OF TUMOR IMMUNITY AND METHODS OF USING SAME” (Duke University, priority 2021, published 2024)
# How the values were obtained:
# [1] = system: iBP tumors; assay: iBP autochthonous melanoma mouse model (tumor growth, flow cytometry); format: in vivo; settings: E2 vs placebo
# Text: (§1) Mice. C57BL/BJ, LysMCre (B6.129P2-Lyz2^tm1(cre)lfo/J) Pmel (B6.Cg-Thy1^a/Cy Tg(TcraTcrb)8Rest/J) mice were from Jackson Laboratories (Bar Harbor, ME). Age matched mice were used for all the studies. LysMCre mice were bred to Esr1^f/f mice to generate Esr1^f/f; LysMCre and littermate control LysMCre and Esr1^f/f mice. iBP (Braf^V600E/WT, Pten^f/fmTyrCreERT2) mice were generated by crossing breeders Braf^WT/WT/Pten^f/f, mTyrCreERT2 mice to BRAF^V600E, Pten^f/f mice. The mice were housed in secure animal facility cages in 12 hour light:dark cycles at temperature around 25° C. and 70% humidity. Mice had access to ad-libitum food and water. NSG (NOD.Cg-Prkd^scid Il2rg^tm1Wjl/SzJ) mice were from the Division of Laboratory Animal Resources (Duke University). The NSG animals were fed with a GL3 diet and were kept in pathogen free conditions.
# Tumor models and cells. The mouse B16F10 and Yumm5.2 cell lines were purchased from American Type Culture Collection (ATCC, Manassas, VA). The mouse melanoma cell line BPD6 was established from iBP as described elsewhere (Zhao et al., Immunity 2018, 48, 147-160). B16F10 and BPD6 cells were maintained in Dulbecco's Modified Eagle's Medium (DMEM) supplemented with 8% fetal bovine serum (FBS), 0.1 mM non-essential amino acids (NEAA) and 1 mM sodium pyruvate. YuMM5.2 cells were maintained in DMEM/F12 media supplemented with 10% FBS. The cells were replated 3 times/week at a confluency of 1:10 and were kept in a 37° C. incubator at 5% CO2. For subcutaneous tumor models B16F10 (5×10^4 or 1×10^5), YuMM5.2 (5×10^5), and BPD6 (5×10^5) cells were injected into the right flank of the mice. For iBP mice, tumors were induced with a single intradermal dose of 4-hydroxytamoxifen in DMSO (150 μg/mouse). Tumors were measured thrice weekly using an electronic caliper. Tumor volumes were calculated by the formula V=L×(W×W)/2. For iBP mouse tumors, volumes were calculated by the formula V=L×B×H. For tumor growth rate studies mice were euthanized when the tumors reached a maximum size of 2000 mm^3.
# Ovarlectomy and subcutaneous pellet Insertion. Ovariectomy was performed as previously described (Nelson et al., Science 2013, 342, 1094-1098). Eight days prior to tumor inoculation, 7 weeks old C57BL/6J or 5 weeks old (iBP) female mice were subjected to ovariectomy or sham surgery. Mice were anesthetized in an inhalation chamber (2% Isoflurane) and maintained in half the dose of isoflurane (1%) via nose cone throughout the surgical process. Prior to surgery, mice were administered a 5 mg/kg dose of carprofen subcutaneously. The area below the ribs was shaved with an electronic razor and the skin was sterilized by rubbing with betadine and alcohol (3× alternating). A horizontal incision was made through the skin above the ovary fat pad, followed by a vertical incision through the abdominal muscle wall. The ovary was externalized and removed using a cauterizing scissors (or returned if sham). Fat pad was replaced, and muscle walls were opposed and sutured (1-2 stitches). Following suturing, 1 drop of bupivacaine (0.25%) was added on top of the incision site. The skin was opposed, and a wound clip was placed on the incision site. This was repeated for the other ovary. The mouse was then removed from anesthesia and kept in a clean cage and monitored until conscious. The mice were monitored for recovery for 10 days.
# Single cell isolation from tumors. Tumors were isolated, minced on a petri dish in media (DMEM+5% FBS), and then enzymatically digested by the addition of 100 μg/mL DNase I (D5025-150KU, Sigma-Aldrich) and 1 mg/mL collagenase (Collagenase A, Cat #10103586001, Sigma-Aldrich) for 30 mins-45 mins. For iBP models, isolated tumors were sliced into large chunks and subjected to mechanical digestion in a gentleMACS Dissociator for 30 seconds twice. […]
# [2] = system: B16F10 tumors; assay: B16F10 tumor growth in ovariectomized NSG mice; format: in vivo, mouse
# Description: Tumor formation in these mice were induced with a single intradermal dose of 150 μg of 4-hydroxytamoxifen (4OHT). […] FIGS. 6A-6B and FIGS. 6E-6F are representative of two independent experiments. Data are expressed as mean t S.E.M. Significance was calculated using the Student's t test (FIG. 6C and FIG. 6H), log-rank test (FIG. 6D and FIG. 6G), and two-way ANOVA followed by Bonferroni's multiple correction (FIGS. 6A-6B, FIGS. 6E-6F, and FIG. 6I) (*p<0.05, *p<0.01, and ***<0.001).
# as §1, with “Mice had access to ad-libitum food and water. NSG (NOD.Cg-Prkd^scid Il2rg^tm1Wjl/SzJ) mice were from the Division of Laboratory Animal Resources (Duke University). The NSG animals were fed with a GL3 diet and were kept in pathogen free conditions.” left out
# Tumor models and cells. […] Tumors were measured thrice weekly using an electronic caliper. Tumor volumes were calculated by the formula V=L×(W×W)/2. For iBP mouse tumors, volumes were calculated by the formula V=L×B×H. For tumor growth rate studies mice were euthanized when the tumors reached a maximum size of 2000 mm^3.
# [3] = Uterine wet weights in ovariectomized mice; format: in vivo, mouse; settings: E2 pellets 0.01 mg/60 days vs placebo
# Description: ERα+ MCF7 cells served as a positive control. Cells were treated as either mock transfected or transfected with scrambled control or three different siRNA targeting Esr1. […] Esr1 was first normalized to Rplp0 and then Esr1 knockdown samples were normalized to a non-targeting control. RNA was collected from both cell lines after 48 hr of siRNA transfection. […] Mouse ovary served as a positive control. […] ERα+MCF7 cells served as a positive control (FIG. 5E, left). […] Data are expressed as individual data points and represented as mean±S.E.M. Significance was calculated by Student's t test or two-way ANOVA (FIGS. 5E-5F), followed by Bonferroni's multiple correction (**p<0.0001).
# Ovarlectomy and subcutaneous pellet Insertion. Ovariectomy was performed as previously described (Nelson et al., Science 2013, 342, 1094-1098). Eight days prior to tumor inoculation, 7 weeks old C57BL/6J or 5 weeks old (iBP) female mice were subjected to ovariectomy or sham surgery. Mice were anesthetized in an inhalation chamber (2% Isoflurane) and maintained in half the dose of isoflurane (1%) via nose cone throughout the surgical process. Prior to surgery, mice were administered a 5 mg/kg dose of carprofen subcutaneously. […] The mouse was then removed from anesthesia and kept in a clean cage and monitored until conscious. The mice were monitored for recovery for 10 days.
substance,measurement,setting,value
17β-estradiol [E2],tumor growth,[1]; ovariectomized iBP mice,accelerated tumor growth
same,"CD3+ T cell population, tumor-infiltrating",[1]; flow cytometry,overall decrease
same,infiltration of immune cells (CD45+),[1]; flow cytometry,not impacted by treatment
same,number of monocytes,[1]; flow cytometry,trend was observed towards an increase
same,ratio of intratumoral M1 (MHCII^hi CD206−) to M2 (MHCII^lo CD206+/hi) macrophages,[1]; flow cytometry,decreases
same,total number of F480+ macrophages,[1]; flow cytometry,remaining unchanged
same,"CD4+ T cells, tumor-infiltrating","[1]; flow cytometry, FIGS. 16B-16C show B16F10 and YuMM5.2",no significant changes
same,slower tumor growth kinetics imparted by ovariectomy (placebo vs E2),[2],disappeared
same,uterine wet weights,[3],increase
